Test results reported in US6495528B1 (SmithKline Beecham Corporation, priority 1998, dated 2002).

What was measured:
Type in all cases: cell-based
[1] = target: T1, human adenosine 2a receptor (Homo sapiens, UniProt P29274); test: Agonist activity at adenosine 2a receptor, CHO cells with CRE-SPAP reporter (basal cAMP); settings: CHO cells transfected with human A2a receptor; effect on basal cAMP via SPAP; ratio to NECA; minimum values (about 20% inactive impurity)
T1 construct: expressed in transfected cells; host or cells: Chinese hamster ovary (CHO) cells, also transfected with a CRE-SPAP reporter
Description: (§1) (1) Agonist activity against adenosine 2a, adenosine 1 and adenosine 3 receptor subtypes.
(§2) Agonist selectivity of compounds against other human adenosine receptors is determined using Chinese hamster ovary (CHO) cells transfected with the gene for the relevant human adenosine receptor following a method based on that of Castanon and Spevak, 1994. The CHO cells are also transfected with cyclic AMP response elements promoting the gene for secreted placental alkaline phosphatase (SPAP) (Wood, 1995). The effect of test compounds is determined by their effects on basal levels of cAMP (A2a ) or on forskolin-enhanced cAMP (A1 and A3) as reflected by changes in levels of SPAP. EC50 values for compounds are then determined as a ratio to that of the non-selective agonist N-ethyl carboxamide adenosine (NECA).

[2] = target: T2, human adenosine 1 receptor (Homo sapiens, UniProt P30542); test: Agonist activity at adenosine 1 receptor, CHO cells with CRE-SPAP reporter (forskolin-enhanced cAMP); settings: CHO cells transfected with human A1 receptor; effect on forskolin-enhanced cAMP via SPAP; ratio to NECA; minimum values (about 20% inactive impurity)
T2 construct: expressed in transfected cells; host or cells: Chinese hamster ovary (CHO) cells, also transfected with a CRE-SPAP reporter
T2 sequence (P30542 1-326): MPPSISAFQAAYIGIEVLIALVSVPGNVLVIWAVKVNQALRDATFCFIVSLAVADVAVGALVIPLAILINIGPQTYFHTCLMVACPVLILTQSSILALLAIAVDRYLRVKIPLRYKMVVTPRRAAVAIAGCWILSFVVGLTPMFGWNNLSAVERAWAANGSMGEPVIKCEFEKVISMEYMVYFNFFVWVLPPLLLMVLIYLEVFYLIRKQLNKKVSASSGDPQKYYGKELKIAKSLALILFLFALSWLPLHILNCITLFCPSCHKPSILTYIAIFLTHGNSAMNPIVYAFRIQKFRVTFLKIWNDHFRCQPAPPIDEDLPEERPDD
Description: as §1, §2

[3] = target: T3, human adenosine 3 receptor (Homo sapiens, UniProt P0DMS8); test: Agonist activity at adenosine 3 receptor, CHO cells with CRE-SPAP reporter (forskolin-enhanced cAMP); settings: CHO cells transfected with human A3 receptor; effect on forskolin-enhanced cAMP via SPAP; ratio to NECA; minimum values (about 20% inactive impurity)
T3 construct: expressed in transfected cells; host or cells: Chinese hamster ovary (CHO) cells, also transfected with a CRE-SPAP reporter
T3 sequence (P0DMS8 1-318): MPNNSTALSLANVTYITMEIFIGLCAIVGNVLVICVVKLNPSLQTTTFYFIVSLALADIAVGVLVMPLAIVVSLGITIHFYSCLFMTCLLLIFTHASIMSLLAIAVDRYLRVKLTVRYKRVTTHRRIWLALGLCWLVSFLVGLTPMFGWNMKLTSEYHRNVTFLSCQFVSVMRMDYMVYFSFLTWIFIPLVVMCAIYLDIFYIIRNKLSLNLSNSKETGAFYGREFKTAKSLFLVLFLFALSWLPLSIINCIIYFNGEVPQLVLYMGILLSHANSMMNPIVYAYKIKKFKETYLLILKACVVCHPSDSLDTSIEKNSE
Description: as §1, §2

T1 sequence (P29274 whole entry): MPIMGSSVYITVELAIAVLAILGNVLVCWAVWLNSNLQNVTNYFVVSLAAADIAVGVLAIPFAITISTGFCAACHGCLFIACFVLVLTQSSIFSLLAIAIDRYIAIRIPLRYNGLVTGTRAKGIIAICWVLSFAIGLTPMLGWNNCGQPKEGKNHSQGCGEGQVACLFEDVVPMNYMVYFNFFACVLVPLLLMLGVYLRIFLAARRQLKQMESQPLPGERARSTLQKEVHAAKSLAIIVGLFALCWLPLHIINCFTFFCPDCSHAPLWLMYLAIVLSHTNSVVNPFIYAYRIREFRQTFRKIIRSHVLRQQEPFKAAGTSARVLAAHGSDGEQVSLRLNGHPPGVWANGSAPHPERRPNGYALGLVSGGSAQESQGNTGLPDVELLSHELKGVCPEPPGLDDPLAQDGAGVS

Row | Structure (SMILES) | A2a EC50 as a ratio of that of NECA [1] | A1 EC50 as a ratio of that of NECA [2] | A3 EC50 as a ratio of that of NECA [3]
1 | CC(=O)OCCn1nnc(C2OC(n3cnc4c(NCC(c5ccccc5)c5ccccc5)nc(NCCN5CCCCC5)nc43)C(O)C2O)n1 (stereo not drawn) [Example 3, Acetic acid 2-(5-{5R-[6-(2,2-diphenyl-ethylamino)-2-(2-piperidin-1-yl-ethylamino)-purin-9-yl]-3S,4R-dihydroxy-tetrahydro-furan-2R -yl}-tetrazol-2-yl)-ethyl ester bis(trifluoroacetate)] | 16.59 | 310.5 | >93
2 | O=C(O)C(F)(F)F.O=C(O)C(F)(F)F.O[C@@H]1[C@H](O)[C@@H](c2nnn(CC3CC3)n2)O[C@H]1n1cnc2c(NCC(c3ccccc3)c3ccccc3)nc(NCCN3CCCCC3)nc21 [Example 4] | 37.24 | 1318.09 | >93
3 | O=C(O)C(F)(F)F.O=C(O)C(F)(F)F.O[C@@H]1[C@H](O)[C@@H](c2nnn(CCCl)n2)O[C@H]1n1cnc2c(NCC(c3ccccc3)c3ccccc3)nc(NCCN3CCCCC3)nc21 [Example 6] | 24.05 | 411.9 | >97
4 | O=C(O)C(F)(F)F.O=C(O)C(F)(F)F.O[C@@H]1[C@H](O)[C@@H](c2nnn(C3CCC3)n2)O[C@H]1n1cnc2c(NCC(c3ccccc3)c3ccccc3)nc(NCCN3CCCCC3)nc21 [Example 7] | 22.98 | 597.82 | >95
5 | C=CCn1nnc(C2OC(n3cnc4c(NCC(c5ccccc5)c5ccccc5)nc(NCCN5CCCCC5)nc43)C(O)C2O)n1 [Example 8, (2R,3S,4R,5R)-2-(2-Allyl 2H-tetrazol-5-[6-(2,2-diphenyl-ethylamino)-2-(2-piperidin-1-yl-ethylamino)-purin-9-yl]-tetrahydro-furan-3,4-diolbis(trifluoroacetate)] | 26.38 | >6131 | >165

Other lines, results leading:

Row | A2a EC50 as a ratio of that of NECA [1] | A1 EC50 as a ratio of that of NECA [2] | A3 EC50 as a ratio of that of NECA [3] | Structure (SMILES)
6 | 22.64 | 434.8 | >93 | OCCCn1nnc(C2OC(n3cnc4c(NCC(c5ccccc5)c5ccccc5)nc(NCCN5CCCCC5)nc43)C(O)C2O)n1 [Example 1, 2R,3R,4S,5R)-2-[6-(2,2-Diphenyl-ethylamino)-2-(2-piperidin-1-yl-ethylamino)-purin-9-yl]-5-[2-(3-hydroxy-propyl)-2H-tetrazol-5-yl]-tetrahydro-furan-3,4-diol bis(trifluoroacetate)]
7 | 30.95 | 755.4 | >93 | CCCn1nnc(C2OC(n3cnc4c(NCC(c5ccccc5)c5ccccc5)nc(NCCN5CCCCC5)nc43)C(O)C2O)n1 [Example 2, 2R,3R,4S,5R)-2-[6-(2,2-Diphenyl-ethylamino)-2-(2-piperidin-1-yl-ethylamino)-purin-9-yl]-5-(2-propyl-2H-tetrazo-5-tetrahydro-furan-3,4-diol bis(trifluoroacetate)]
8 | 10.54 | 159.5 | >94 | OCCn1nnc(C2OC(n3cnc4c(NCC(c5ccccc5)c5ccccc5)nc(NCCN5CCCCC5)nc43)C(O)C2O)n1 [Example 5, (2R,3R,4S,5R)-2-[6-(2,2-Diphenyl-ethylamino)-2-(2-piperidin-1-yl-ethylamino)-purin-9-yl]-5-[2-(2-hydroxy-ethyl)-2H-tetrazo-5-yl]-tetrahydro-furan-3,4-diol bis(trifluoroacetate)]
